Measurements as given in ChEMBL document CHEMBL1154736, “Increasing selectivity of CC chemokine receptor 8 antagonists by engineering nondesolvation related interactions with the intended and off-target binding sites” (J Med Chem, 2009).
pIC50: −log10 of the molar value.

Biological target: Voltage-gated inwardly rectifying potassium channel KCNH2 (Homo sapiens, UniProt Q12809, S624A)
Assay: Inhibition of human recombinant ERG S624A mutant expressed in CHOK1 cells by whole-cell plate-based electrophysiology
Details: cho-k1

Row | SMILES | delta pIC50 wt-mutant
1 | CC1(C)Cc2cccc(CN3CCC4(CC3)CCN(C(=O)c3ncccc3N)CC4)c2O1 | 1.32
2 | CC1(C)Cc2c(CN3CCC4(CC3)CCN(C(=O)c3ccc(N)cn3)CC4)cccc2O1 | 0.79
3 | CC1(C)CCc2cc(CN3CCC4(CC3)CCN(C(=O)c3ccc(N)cn3)CC4)ccc2O1 | 1.09
4 | CC(C)COc1ccccc1CN1CCC2(CC1)CCN(C(=O)c1ccncn1)CC2 | 0.51
5 | CC1(C)Cc2c(CN3CCC4(CC3)CCN(C(=O)c3ccnc(N)c3)CC4)cccc2O1 | 0.55

Biological target: Voltage-gated inwardly rectifying potassium channel KCNH2 (Homo sapiens, UniProt Q12809, S624T)
Assay: Inhibition of human recombinant ERG S624T mutant expressed in CHOK1 cells by whole-cell plate-based electrophysiology
Details: cho-k1

Row | SMILES | delta pIC50 wt-mutant
6 | CC1(C)Cc2cccc(CN3CCC4(CC3)CCN(C(=O)c3ncccc3N)CC4)c2O1 | 0.43
7 | CC1(C)Cc2c(CN3CCC4(CC3)CCN(C(=O)c3ccc(N)cn3)CC4)cccc2O1 | 0.31
8 | CC1(C)CCc2cc(CN3CCC4(CC3)CCN(C(=O)c3ccc(N)cn3)CC4)ccc2O1 | -0.28
9 | CC(C)COc1ccccc1CN1CCC2(CC1)CCN(C(=O)c1ccncn1)CC2 | 0.12
10 | CC1(C)Cc2c(CN3CCC4(CC3)CCN(C(=O)c3ccnc(N)c3)CC4)cccc2O1 | -0.58

Biological target: Voltage-gated inwardly rectifying potassium channel KCNH2 (Homo sapiens, UniProt Q12809, Y652A)
Assay: Inhibition of human recombinant ERG Y652A mutant expressed in CHOK1 cells by whole-cell plate-based electrophysiology
Details: cho-k1

Row | SMILES | delta pIC50 wt-mutant
11 | CC1(C)Cc2cccc(CN3CCC4(CC3)CCN(C(=O)c3ncccc3N)CC4)c2O1 | 1.81
12 | CC1(C)Cc2c(CN3CCC4(CC3)CCN(C(=O)c3ccc(N)cn3)CC4)cccc2O1 | 1.23
13 | CC1(C)CCc2cc(CN3CCC4(CC3)CCN(C(=O)c3ccc(N)cn3)CC4)ccc2O1 | 0.83
14 | CC(C)COc1ccccc1CN1CCC2(CC1)CCN(C(=O)c1ccncn1)CC2 | 0.7
15 | CC1(C)Cc2c(CN3CCC4(CC3)CCN(C(=O)c3ccnc(N)c3)CC4)cccc2O1 | 0.89

Biological target: Voltage-gated inwardly rectifying potassium channel KCNH2 (Homo sapiens, UniProt Q12809, Y652F)
Assay: Inhibition of human recombinant ERG Y652F mutant expressed in CHOK1 cells by whole-cell plate-based electrophysiology
Details: cho-k1

Row | SMILES | delta pIC50 wt-mutant
16 | CC1(C)Cc2cccc(CN3CCC4(CC3)CCN(C(=O)c3ncccc3N)CC4)c2O1 | 0.64
17 | CC1(C)Cc2c(CN3CCC4(CC3)CCN(C(=O)c3ccc(N)cn3)CC4)cccc2O1 | 0.68
18 | CC1(C)CCc2cc(CN3CCC4(CC3)CCN(C(=O)c3ccc(N)cn3)CC4)ccc2O1 | 0.47
19 | CC(C)COc1ccccc1CN1CCC2(CC1)CCN(C(=O)c1ccncn1)CC2 | -0.42
20 | CC1(C)Cc2c(CN3CCC4(CC3)CCN(C(=O)c3ccnc(N)c3)CC4)cccc2O1 | -0.37

Biological target: Voltage-gated inwardly rectifying potassium channel KCNH2 (Homo sapiens, UniProt Q12809, F656M)
Assay: Inhibition of human recombinant ERG F656M mutant expressed in CHOK1 cells by whole-cell plate-based electrophysiology
Details: cho-k1

Row | SMILES | delta pIC50 wt-mutant
21 | CC1(C)Cc2cccc(CN3CCC4(CC3)CCN(C(=O)c3ncccc3N)CC4)c2O1 | -0.26
22 | CC1(C)Cc2c(CN3CCC4(CC3)CCN(C(=O)c3ccc(N)cn3)CC4)cccc2O1 | -0.22
23 | CC1(C)CCc2cc(CN3CCC4(CC3)CCN(C(=O)c3ccc(N)cn3)CC4)ccc2O1 | -0.66
24 | CC(C)COc1ccccc1CN1CCC2(CC1)CCN(C(=O)c1ccncn1)CC2 | 0.21
25 | CC1(C)Cc2c(CN3CCC4(CC3)CCN(C(=O)c3ccnc(N)c3)CC4)cccc2O1 | 0.14

Biological target: Voltage-gated inwardly rectifying potassium channel KCNH2 (Homo sapiens, UniProt Q12809, F656T)
Assay: Inhibition of human recombinant ERG F656T mutant expressed in CHOK1 cells by whole-cell plate-based electrophysiology
Details: cho-k1

Row | SMILES | delta pIC50 wt-mutant
26 | CC1(C)Cc2cccc(CN3CCC4(CC3)CCN(C(=O)c3ncccc3N)CC4)c2O1 | 0.77
27 | CC1(C)Cc2c(CN3CCC4(CC3)CCN(C(=O)c3ccc(N)cn3)CC4)cccc2O1 | 0.2
28 | CC1(C)CCc2cc(CN3CCC4(CC3)CCN(C(=O)c3ccc(N)cn3)CC4)ccc2O1 | -0.09
29 | CC(C)COc1ccccc1CN1CCC2(CC1)CCN(C(=O)c1ccncn1)CC2 | 1.65
30 | CC1(C)Cc2c(CN3CCC4(CC3)CCN(C(=O)c3ccnc(N)c3)CC4)cccc2O1 | 1.32

Biological target: Voltage-gated inwardly rectifying potassium channel KCNH2 (Homo sapiens, UniProt Q12809, F656W)
Assay: Inhibition of human recombinant ERG F656W mutant expressed in CHOK1 cells by whole-cell plate-based electrophysiology
Details: cho-k1

Row | SMILES | delta pIC50 wt-mutant
31 | CC1(C)Cc2cccc(CN3CCC4(CC3)CCN(C(=O)c3ncccc3N)CC4)c2O1 | -0.32
32 | CC1(C)Cc2c(CN3CCC4(CC3)CCN(C(=O)c3ccc(N)cn3)CC4)cccc2O1 | -0.66
33 | CC1(C)CCc2cc(CN3CCC4(CC3)CCN(C(=O)c3ccc(N)cn3)CC4)ccc2O1 | -0.35
34 | CC(C)COc1ccccc1CN1CCC2(CC1)CCN(C(=O)c1ccncn1)CC2 | -0.42
35 | CC1(C)Cc2c(CN3CCC4(CC3)CCN(C(=O)c3ccnc(N)c3)CC4)cccc2O1 | -0.61

Biological target: T1, Voltage-gated inwardly rectifying potassium channel KCNH2 (Homo sapiens, UniProt Q12809)
Assay: Displacement of [3H]dofetilide from human recombinant ERG expressed in HEK293 cells by patch clamp method
Details: not given

Row | SMILES | pIC50
36 | CC1(C)Cc2cccc(CN3CCC4(CC3)CCN(C(=O)c3ncccc3N)CC4)c2O1 | 4.49
37 | CC1(C)Cc2c(CN3CCC4(CC3)CCN(C(=O)c3ccc(N)cn3)CC4)cccc2O1 | 4.89
38 | CC1(C)CCc2cc(CN3CCC4(CC3)CCN(C(=O)c3ccc(N)cn3)CC4)ccc2O1 | 4.49
39 | CC(C)COc1ccccc1CN1CCC2(CC1)CCN(C(=O)c1ccncn1)CC2 | 4.72
40 | CC1(C)Cc2c(CN3CCC4(CC3)CCN(C(=O)c3ccnc(N)c3)CC4)cccc2O1 | 4.77

Tested on: not listed separately
Assay: Apparent n-Octanol-water partition coefficient, log D at pH 7.4 by HPLC analysis
Details: not given

Row | SMILES | logD
41 | CC(C)COc1ccccc1CN1CCC2(CC1)CCN(C(=O)c1ccncn1)CC2 | -0.11
42 | CC1(C)Cc2c(CN3CCC4(CC3)CCN(C(=O)c3ccnc(N)c3)CC4)cccc2O1 | 1.4

Now from value to molecule:

Row | logD | SMILES
43 | 1.1 | CC1(C)CCc2cc(CN3CCC4(CC3)CCN(C(=O)c3ccc(N)cn3)CC4)ccc2O1
44 | 1.4 | CC1(C)Cc2cccc(CN3CCC4(CC3)CCN(C(=O)c3ncccc3N)CC4)c2O1
45 | 1.3 | CC1(C)Cc2c(CN3CCC4(CC3)CCN(C(=O)c3ccc(N)cn3)CC4)cccc2O1

Biological target: T1, Voltage-gated inwardly rectifying potassium channel KCNH2
Assay: Inhibition of wild type human ERG expressed in CHOK1 cells by whole-cell plate-based electrophysiology
Details: not given

Row | SMILES | pIC50
46 | CC1(C)Cc2cccc(CN3CCC4(CC3)CCN(C(=O)c3ncccc3N)CC4)c2O1 | 5.38
47 | CC1(C)Cc2c(CN3CCC4(CC3)CCN(C(=O)c3ccc(N)cn3)CC4)cccc2O1 | 4.78
48 | CC1(C)CCc2cc(CN3CCC4(CC3)CCN(C(=O)c3ccc(N)cn3)CC4)ccc2O1 | 4.71
49 | CC(C)COc1ccccc1CN1CCC2(CC1)CCN(C(=O)c1ccncn1)CC2 | 5.31
50 | CC1(C)Cc2c(CN3CCC4(CC3)CCN(C(=O)c3ccnc(N)c3)CC4)cccc2O1 | 4.54

Biological target: C-C chemokine receptor type 8 (Homo sapiens, UniProt P51685)
Sequence (P51685 whole entry): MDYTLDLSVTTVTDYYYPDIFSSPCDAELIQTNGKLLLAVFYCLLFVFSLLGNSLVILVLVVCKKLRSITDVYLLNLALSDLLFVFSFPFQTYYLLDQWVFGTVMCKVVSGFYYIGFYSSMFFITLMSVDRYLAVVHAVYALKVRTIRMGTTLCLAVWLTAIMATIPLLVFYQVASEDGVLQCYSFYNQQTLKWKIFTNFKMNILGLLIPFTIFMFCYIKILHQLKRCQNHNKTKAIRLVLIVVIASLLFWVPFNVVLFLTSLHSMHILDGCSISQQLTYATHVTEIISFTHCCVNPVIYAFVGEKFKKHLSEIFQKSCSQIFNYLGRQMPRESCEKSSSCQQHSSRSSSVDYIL
Assay: Antagonist activity at human CCR8
Format: functional
Details: not given

Row | SMILES | pIC50
51 | CC(C)COc1ccccc1CN1CCC2(CC1)CCN(C(=O)c1ccncn1)CC2 | 6.85
52 | CC1(C)Cc2c(CN3CCC4(CC3)CCN(C(=O)c3ccnc(N)c3)CC4)cccc2O1 | 7.65

Further molecules by rising pIC50, results first:

Row | pIC50 | SMILES
53 | 7.02 | CC1(C)CCc2cc(CN3CCC4(CC3)CCN(C(=O)c3ccc(N)cn3)CC4)ccc2O1
54 | 7.65 | CC1(C)Cc2cccc(CN3CCC4(CC3)CCN(C(=O)c3ncccc3N)CC4)c2O1
55 | 8.09 | CC1(C)Cc2c(CN3CCC4(CC3)CCN(C(=O)c3ccc(N)cn3)CC4)cccc2O1

Biological target: Voltage-gated inwardly rectifying potassium channel KCNH2 (Homo sapiens, UniProt Q12809, T623S)
Assay: Inhibition of human recombinant ERG T623S mutant expressed in CHOK1 cells by whole-cell plate-based electrophysiology
Details: cho-k1

Row | SMILES | delta pIC50 wt-mutant
56 | CC1(C)Cc2cccc(CN3CCC4(CC3)CCN(C(=O)c3ncccc3N)CC4)c2O1 | 0.41
57 | CC1(C)Cc2c(CN3CCC4(CC3)CCN(C(=O)c3ccc(N)cn3)CC4)cccc2O1 | 0.49
58 | CC1(C)CCc2cc(CN3CCC4(CC3)CCN(C(=O)c3ccc(N)cn3)CC4)ccc2O1 | 0.24
59 | CC(C)COc1ccccc1CN1CCC2(CC1)CCN(C(=O)c1ccncn1)CC2 | 0.22
60 | CC1(C)Cc2c(CN3CCC4(CC3)CCN(C(=O)c3ccnc(N)c3)CC4)cccc2O1 | 0.01
